Values of other authors in article PMC12141164, “Phase-1 study of vamotinib (PF-114), a 3rd generation BCR::ABL1 tyrosine kinase-inhibitor, in chronic myeloid leukaemia” (Annals of Hematology, 2025).
Like-named read-outs stand apart in the source and are kept apart here.

Columns and labels:
Details in all cases: cited from earlier work
TIE2 = test system: TIE2
VEGFR2 = test system: VEGFR2
EPHA6 = test system: EPHA6
ZAK = test system: ZAK
EPHA7 = test system: EPHA7
PDGFRa = test system: PDGFRa
TAK1 = test system: TAK1
[1] = set-up: method as in PMID 35982483

Compound	inhibition of TIE2 (TIE2)	inhibition of VEGFR2 (VEGFR2)	inhibition of EPHA6 (EPHA6)	inhibition of ZAK (ZAK)	inhibition of EPHA7 (EPHA7)	inhibition of PDGFRa (PDGFRa; off-target kinases)	inhibition of TAK1 (TAK1)	most common non-hematologic adverse reaction ([1]; clinical evaluation)	drug related cardiovascular adverse events ([1]; recent clinical studies)	inhibition of TIE2 (TIE2; kinase inhibition profiles)	inhibition of VEGFR2 (VEGFR2; kinase inhibition profiles)	inhibition of EPHA6 (EPHA6; kinase inhibition profiles)	inhibition of ZAK (ZAK; kinase inhibition profiles)	inhibition of EPHA7 (EPHA7; kinase inhibition profiles)	inhibition of PDGFRa (PDGFRa; kinase inhibition profiles)	inhibition of TAK1 (TAK1; kinase inhibition profiles)
Cc1ccc(C(=O)Nc2ccc(CN3CCN(C)CC3)c(C(F)(F)F)c2)cc1C#Cc1cnc2[nH]ncc2c1 [olverembatinib]	potent inhibitor	not	not	potent inhibitor	not	among the off-target kinases	potent inhibitor	skin pigmentation	some drug related cardiovascular adverse events, including vascular occlusions							
Cc1ccc(C(=O)Nc2ccc(CN3CCN(C)CC3)c(C(F)(F)F)c2)cc1C#Cc1cnc2cccnn12 [ponatinib]										inhibition	inhibition	inhibition	inhibition	inhibition	potently inhibited	inhibition
